Measured values taken from patent US20050019869A1, “Chimeric neuropeptide Y receptors” (priority 2000, published 2005).
No end group written: not given here.

Assays:
NPY5 receptor = biological target: T1, NPY5 receptor (Homo sapiens, UniProt Q15761); assay: [125I]PYY competition binding, Sf9 membranes expressing NPY5; details: displacement of 0.050 nM [125I]PYY (porcine)
T1 construct: made in house; host or cells: Sf9 insect cells infected with recombinant baculovirus; purified membranes
T1 sequence (Q15761 with tags, fused parts or gaps): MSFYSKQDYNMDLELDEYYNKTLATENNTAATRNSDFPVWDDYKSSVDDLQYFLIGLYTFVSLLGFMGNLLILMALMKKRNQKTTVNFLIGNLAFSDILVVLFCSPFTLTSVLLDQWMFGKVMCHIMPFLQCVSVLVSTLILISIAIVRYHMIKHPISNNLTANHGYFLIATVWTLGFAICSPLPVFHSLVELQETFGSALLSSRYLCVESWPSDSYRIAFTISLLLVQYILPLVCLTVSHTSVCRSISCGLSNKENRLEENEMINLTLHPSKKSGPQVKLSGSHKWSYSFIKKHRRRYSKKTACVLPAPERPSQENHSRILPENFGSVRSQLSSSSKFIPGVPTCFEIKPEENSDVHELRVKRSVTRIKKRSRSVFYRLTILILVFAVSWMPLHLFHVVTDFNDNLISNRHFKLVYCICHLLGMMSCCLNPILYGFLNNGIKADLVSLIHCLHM
Method: (§1) 72 hours post-infection, a sample of cell suspension was analyzed for viability by trypan blue dye exclusion, and the remaining Sf9 cells were harvested via centrifugation (3000 rpm/10 minutes/4° C.).
(§2) Sf9 cell pellets prepared in Example 3 were resuspended in homogenization buffer (10 mM HEPES, 250 mM sucrose, 0.5 μg/ml leupeptin, 2 μg/ml Aprotinin, 200 μM PMSF, and 2.5 mM EDTA, pH 7.4) and homogenized using a POLYTRON homogenizer (setting 5 for 30 seconds). The homogenate was centrifuged (536×g/10 minutes/4° C.) to pellet the nuclei. The supernatant containing isolated membranes was decanted to a clean centrifuge tube, centrifuged (48,000×g/30 minutes, 4° C.) and resuspended in 30 ml homogenization buffer. This centrifugation and resuspension step was repeated twice. The final pellet was resuspended in ice cold Dulbecco's PBS containing 5 mM EDTA and stored at −80° C. in aliquots until needed. The protein concentration of the resulting membrane preparation was measured using the Bradford protein assay (Bio-Rad Laboratories, Hercules, Calif.).
(§3) Purified P2 membranes, prepared by the method given above in Example 4, were washed with PBS and resuspended by Dounce homogenization (tight pestle) in binding buffer (50 mM Tris-HCl, 5 mM KCl, 120 mM NaCl, 2 mM CaCl2, 1 mM MgCl2, 0.1% BSA, pH 7.4).
(§4) Nonspecific binding was determined in the presence of 1 μM NPY (human, American Peptide Co., Sunnyvale, Calif.) and accounted for less that 10% of total binding. Following a 2-hour incubation at room temperature, the reaction was terminated by rapid vacuum filtration. Samples were filtered over presoaked (in 1.0% polyethyeneimine for 2 hours prior to use) GF/C WHATMAN filters and rinsed 2 times with 5 mLs cold binding buffer without BSA. Remaining bound radioactivity was quantified by gamma counting. Ki and Hill coefficient (“nH”) were determined by fitting the Hill equation to the measured values with the aid of SIGMAPLOT software (SPSS Inc., Chicago).

[1] = biological target: T2, NPY5ΔY1IC3 chimeric receptor (Homo sapiens, UniProt Q15761, DEL238-360/INS235IRLKRRNNMMDKMRDNKY/K361S); assay: [125I]PYY competition binding, Sf9 membranes expressing NPY5ΔY1IC3; details: displacement of 0.050 nM [125I]PYY (porcine)
T2 construct: made in house; host or cells: Sf9 insect cells infected with recombinant baculovirus (pBacPAK9 vector); purified membranes
T2 sequence (Q15761 with tags, fused parts or gaps INS235IRLKRRNNMMDKMRDNKY/DEL238-360/K361S): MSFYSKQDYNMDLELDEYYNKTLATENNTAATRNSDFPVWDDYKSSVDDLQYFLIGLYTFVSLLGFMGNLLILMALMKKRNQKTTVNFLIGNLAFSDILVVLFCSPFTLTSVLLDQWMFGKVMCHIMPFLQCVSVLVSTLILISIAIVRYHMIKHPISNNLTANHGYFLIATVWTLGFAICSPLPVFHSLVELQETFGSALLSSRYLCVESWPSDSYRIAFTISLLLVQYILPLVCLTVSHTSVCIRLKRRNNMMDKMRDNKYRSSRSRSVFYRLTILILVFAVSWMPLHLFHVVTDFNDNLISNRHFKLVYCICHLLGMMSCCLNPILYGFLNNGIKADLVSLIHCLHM
Method: as §1, §2, §3, §4

[2] = biological target: T3, NPY5ΔY1CT chimeric receptor (Homo sapiens, UniProt P25929+Q15761); assay: [125I]PYY competition binding, Sf9 membranes expressing NPY5ΔY1CT; details: displacement of 0.050 nM [125I]PYY (porcine)
T3 construct: made in house; host or cells: Sf9 insect cells infected with recombinant baculovirus (pBacPAK9 vector); purified membranes
T3 sequence (Q15761+P25929 with tags, fused parts or gaps): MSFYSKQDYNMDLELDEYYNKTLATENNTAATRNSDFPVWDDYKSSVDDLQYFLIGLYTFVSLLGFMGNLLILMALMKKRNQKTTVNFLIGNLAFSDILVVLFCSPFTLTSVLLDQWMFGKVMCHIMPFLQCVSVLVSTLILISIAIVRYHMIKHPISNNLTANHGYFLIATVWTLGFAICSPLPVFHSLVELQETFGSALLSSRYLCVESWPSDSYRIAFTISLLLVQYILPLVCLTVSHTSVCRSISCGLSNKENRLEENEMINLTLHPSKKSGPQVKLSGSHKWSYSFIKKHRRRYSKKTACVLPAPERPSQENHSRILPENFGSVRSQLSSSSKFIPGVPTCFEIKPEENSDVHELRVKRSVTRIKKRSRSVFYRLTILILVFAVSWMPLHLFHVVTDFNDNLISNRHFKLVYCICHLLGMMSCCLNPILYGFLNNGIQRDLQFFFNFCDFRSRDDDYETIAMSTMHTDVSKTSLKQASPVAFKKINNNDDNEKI
Method: as §1, §2, §3, §4

Human NPY5ΔY1CT chimera = biological target: T4, Human NPY5ΔY1CT chimera (human); assay: displacement of 0.050 nM [125I]PYY (porcine) from Sf9 membranes, filtration
T4 construct: Human NPY5 with its C-terminal intracellular domain replaced by that of human Y1; Expressed in Sf9 cells; assayed in purified membranes
T4 chain: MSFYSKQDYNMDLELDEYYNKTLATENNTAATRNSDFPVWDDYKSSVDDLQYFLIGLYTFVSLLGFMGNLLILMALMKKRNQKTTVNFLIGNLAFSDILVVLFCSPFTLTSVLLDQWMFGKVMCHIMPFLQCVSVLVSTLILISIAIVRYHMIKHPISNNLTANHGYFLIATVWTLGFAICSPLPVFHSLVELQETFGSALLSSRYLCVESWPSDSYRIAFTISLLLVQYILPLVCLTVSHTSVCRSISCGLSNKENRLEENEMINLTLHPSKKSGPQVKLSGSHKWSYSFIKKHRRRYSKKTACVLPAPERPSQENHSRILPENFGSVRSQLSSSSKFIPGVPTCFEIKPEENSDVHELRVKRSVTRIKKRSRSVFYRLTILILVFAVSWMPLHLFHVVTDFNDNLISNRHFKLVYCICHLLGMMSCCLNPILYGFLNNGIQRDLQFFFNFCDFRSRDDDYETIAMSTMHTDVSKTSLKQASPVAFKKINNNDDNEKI
Method: (§5) Following a 2-hour incubation at room temperature, the reaction was terminated by rapid vacuum filtration. Samples were filtered over presoaked (in 1.0% polyethyeneimine for 2 hours prior to use) GF/C WHATMAN filters and rinsed 2 times with 5 mLs cold binding buffer without BSA. Remaining bound radioactivity was quantified by gamma counting. Kᵢ and Hill coefficient (“nH”) were determined by fitting the Hill equation to the measured values with the aid of SIGMAPLOT software (SPSS Inc., Chicago).

Human Y5 receptor (NPY5) = biological target: T5, Human Y5 receptor (NPY5) (human, UniProt Q15761 1-445); assay: as above
T5 construct: Full-length receptor expressed by baculovirus in Sf9 insect cells; assayed in purified Sf9 membranes, not on whole cells; also called native NPY5 receptor; hY5
T5 sequence: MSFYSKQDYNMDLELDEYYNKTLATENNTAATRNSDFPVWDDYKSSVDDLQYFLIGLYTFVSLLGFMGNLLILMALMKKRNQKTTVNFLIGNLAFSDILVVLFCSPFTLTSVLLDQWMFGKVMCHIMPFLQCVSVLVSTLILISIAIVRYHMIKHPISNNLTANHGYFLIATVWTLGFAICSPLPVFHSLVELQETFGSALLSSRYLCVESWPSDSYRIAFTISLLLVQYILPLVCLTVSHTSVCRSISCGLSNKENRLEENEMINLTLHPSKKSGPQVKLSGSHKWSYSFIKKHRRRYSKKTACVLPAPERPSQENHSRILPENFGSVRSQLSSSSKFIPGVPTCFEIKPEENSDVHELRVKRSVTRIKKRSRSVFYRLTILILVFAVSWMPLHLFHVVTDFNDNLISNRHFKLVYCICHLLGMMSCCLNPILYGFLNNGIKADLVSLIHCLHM
Method: as §5

Row | Molecule | nH (Hill coefficient) (NPY5 receptor) | nH (Hill coefficient) [1] | nH (Hill coefficient) [2] | Ki (Human NPY5ΔY1CT chimera) [nM] | Ki (Human Y5 receptor (NPY5)) [nM]
1 | human NPY 1-36 [HNPY 1-36] | 0.7 | 1.0 | 0.7 | – | –
2 | human NPY 3-36 [HNPY 3-36] | 0.7 | 1.2 | 0.6 | – | –
3 | human D-Trp 32 NPY | 0.7 | 0.8 | 0.9 | – | –
4 | human NPY 13-36 [HNPY 13-36] | 0.7 | 1.0 | 0.5 | – | –
5 | APLEPVYPGDNATPEQMAQYAADLRRYINMLTRPRY (peptide, UniProt P01298 30-65, looked up, also called hPP; HPP) [human pancreatic polypeptide] | – | – | – | 0.31 | –
6 | PAEDMARYYSALRHYINLITRQRY (peptide, UniProt P01303 41-64, looked up, ends and bridges not checked, range 13-36; also called HNPY 13-36) [human NPY 13-36] | – | – | – | – | 20
